Laboratory results published in publication PMC13372681, “A natural depsipeptide antibiotic binds the E-site of the bacterial ribosome” (Nature, 2026).
In brackets after ≈: the same amount, converted by molar mass. Read-outs that look alike come from different tables or passages of the source. Where a SMILES comes first, the peptide text is derived from it. Bridges are numbered along the chain shown (N, C = ends). [ ]: non-standard residue; d: D form. dOrn = NCCC[C@@H](N)C(=O)O

Experiments:
M. tuberculosis H37Ra = conditions: Middlebrook 7H9 + 10% OADC + 0.05% Tween-80
S. enterica ATCC 14028 = conditions: broth microdilution, Ca+ MHB Medium
HepG2 cells = assay: Mammalian cytotoxicity, Cell Titer Glo; type: cell-based, human; conditions: 48 h exposure, DMEM + 10% FBS, 1% DMSO, Cell Titer Glo 2.0 luminescence
Description: (§1) Mammalian culture was performed in Dulbecco Modified Eagle Medium (DMEM) supplemented with 10% fetal bovine serum (FBS), 2 mM L-glutamine, 100 units ml^−1 penicillin and 100 µg ml^−1 streptomycin. HEK293 cells (ATCC CRL-1573; generation 6) were seeded at 7,500 cells per well and HepG2 cells (ATCC HB8065; generation 18) were seeded at 4,000 cells per well in 384-well tissue culture-treated white plates in 50 µl DMEM and incubated for 18 h at 37 °C in the presence of 5% CO2. After 18 h of incubation, 500 nl of the compound and DMSO (1% final concentration) were added to the cells using a Labcyte Echo acoustic dispenser (Beckman Coulter). Cells were further incubated for 48 h and after that cell viability was assessed using Promega Cell Titer Glo 2.0 reagent (Fisher Scientific). Before incubating the plates at room temperature for 10 min, 50 µl of Cell Titer Glo was added directly to the medium. The plates were then shaken for 2 min. The Neo2 plate reader (Biotek) was used to read the luminescence through luminescent fibre. Cells that were either not treated or solely treated with DMSO were used as a control.

HEK293 cells = assay: Mammalian cytotoxicity, Cell Titer Glo; type: cell-based, human; conditions: 48 h exposure, DMEM + 10% FBS, 1% DMSO, Cell Titer Glo 2.0 luminescence
Description: as §1

[1] = test system: Bacteroides fragilis GC73; assay: MIC, anaerobic gut bacteria; type: cell-based; conditions: gut isolate, BHI + L-cysteine, haemin, vitamin K, 37 °C
[2] = Acute tolerability in mice; type: in vivo; conditions: doses up to 220 mg kg^−1 per day (divided into four doses over 20 hours, subcutaneous)
Blautia obeum GC925 = assay: MIC, anaerobic gut bacteria; type: cell-based; conditions: gut isolate, BHI + L-cysteine, haemin, vitamin K, 37 °C
[3] = test system: Lactobacillus plantarum GC4; assay: MIC, anaerobic gut bacteria; type: cell-based; conditions: gut isolate, BHI + L-cysteine, haemin, vitamin K, 37 °C
E. coli C1507 = conditions: broth microdilution, Ca+ MHB Medium; MDR clinical isolate
[4] = mouse plasma 1:1 with PBS pH 7.4, 10 µM, 37 °C, 0–120 min, LC–MS, % remaining; duplicate, two biological replicates
[5] = test system: Clostridium perfringens GC1584; conditions: gut isolate; BHI + L-cysteine, haemin, vitamin K, anaerobic, 37 °C
[6] = human plasma 1:1 with PBS pH 7.4, 10 µM, 37 °C, 0–120 min, LC–MS, % remaining; duplicate, two biological replicates
[7] = test system: M. bovis BCG Pasteur ATCC 35734; conditions: Middlebrook 7H9 + 10% OADC + 0.05% Tween-80
E. coli C1508 = conditions: broth microdilution, MDR clinical isolate
S. aureus USA 300 = conditions: broth microdilution, MHBII
in vivo = conditions: female, ICR CD-1, mouse, plasma, sc; for level at 8 h / level at 24 h: below limit of quantification
[8] = test system: Candida albicans ATCC 90028
E. coli ΔtolC ΔbamB = conditions: broth microdilution
[9] = test system: Bifidobacterium breve GC96; assay: MIC, anaerobic gut bacteria; type: cell-based; conditions: gut isolate, BHI + L-cysteine, haemin, vitamin K, 37 °C
[10] = test system: M. avium subsp. avium ATCC 25291; conditions: Middlebrook 7H9 + 10% OADC + 0.05% Tween-80
[11] = broth microdilution, Ca+ MHB Medium
[12] = broth microdilution, Ca+ MHB Medium, MDR clinical isolate
[13] = 50 mg/kg, Plasma concentration MKM, s.c. 50 mg/kg, Mouse 2
[14] = 50 mg/kg, Plasma concentration MKM, s.c. 50 mg/kg, Mouse 3
[15] = 50 mg/kg, Plasma concentration MKM, s.c. 50 mg/kg, Mouse 1

Compound `C[C@@H](O)[C@@H]1NC(=O)[C@@H](CCCNC(=N)N)NC(=O)[C@@H](CCCNC(=N)N)NC(=O)[C@@H](CC(N)=O)NC(=O)[C@@H](NC(=O)[C@@H](Cc2ccccc2)NC(=O)[C@@H](CCCN)NC(=O)[C@H](N)CCCNC(=N)N)[C@@H](C)OC(=O)[C@H](Cc2c[nH]cn2)NC1=O` [MKM-A, manikomycin] (H-[dR][dOrn][dF]T[dN][dR][dR]TH; ester 4-C) has an MIC (M. tuberculosis H37Ra) of 4 µg/mL, an MIC (S. enterica ATCC 14028) of 32 µg/mL (≈ 27 µM) and an MIC (E. coli BW25113; BW25113) of 4 µg/mL (≈ 3.38 µM). The MIC (E. coli BW25113; broth microdilution, Ca+ MHB Medium (cation-adjusted MHB)) was 32 µg/mL (≈ 27 µM), the “HepG2 (IC50)” value (HepG2 cells) was over 256 µg/mL and the “HEK 293 (IC50)” value (HEK293 cells) was over 256 µg/mL. The MIC [1] was over 256 µg/mL, the acute tolerability [2] was “acceptable acute tolerability” and the MIC (Blautia obeum GC925) was over 256 µg/mL. It also gave an MIC [3] of over 256 µg/mL, an MIC (S. aureus ATCC 29213) of 64 µg/mL (≈ 54.1 µM) and an MIC (P. aeruginosa PAO1; PAO1) of over 64 µg/mL. For the same compound, the MIC (P. aeruginosa PAO1; [11]) was over 128 µg/mL, the MIC (P. aeruginosa PAO1; broth microdilution, MOPS Minimal Medium) was over 128 µg/mL and the MIC (E. coli C1507) was 32 µg/mL (≈ 27 µM). For the same compound, the MIC (E. coli C0617; C0617) was 8 µg/mL (≈ 6.76 µM), the MIC (E. coli C0617; [12]) was 32 µg/mL (≈ 27 µM) and the stability in plasma [4] was “excellent stability”. The MIC [5] was over 256 µg/mL, the stability in plasma [6] was “excellent stability” and the MIC [7] was 2 µg/mL. It also gave an MIC (E. coli C1508; Ca+ MHB Medium) of 32 µg/mL (≈ 27 µM), an MIC (E. coli C1508; MOPS Minimal Medium) of 16 µg/mL (≈ 13.5 µM) and an MIC (E. coli C1508; RPMI Medium) of 4 µg/mL (≈ 3.38 µM). For the same compound, the MIC (S. aureus USA 300) was 128 µg/mL (≈ 108 µM), the Cmax (in vivo; 50 mg kg^−1) was 9130 ng/mL and the half-life (in vivo; 50 mg kg^−1) was about 36 min. For the same compound, the level at 0.25 h (in vivo; 50 mg/kg, Plasma concentration MKM, s.c. 50 mg/kg, Mouse 1, linear range 1.6–50 µg/ml) was 6650 ng/mL, the level at 0.25 h (in vivo; [13]) was 8580 ng/mL and the level at 0.25 h (in vivo; [14]) was 9540 ng/mL. It also gave a level at 0.5 h (in vivo; 50 mg/kg, Plasma concentration MKM, s.c. 50 mg/kg, Time 0.5 (h), Mouse 3) of 9170 ng/mL, a level at 1 h (in vivo; [15]) of 6890 ng/mL and a level at 1 h (in vivo; [13]) of 9080 ng/mL. For the same compound, the level at 1 h (in vivo; [14]) was 6930 ng/mL, the level at 2 h (in vivo; [15]) was 1470 ng/mL and the level at 2 h (in vivo; [13]) was 1060 ng/mL. The level at 2 h (in vivo; [14]) was 2600 ng/mL, the level at 8 h (in vivo; [15]) was 386 ng/mL and the level at 8 h (in vivo; [13]) was 55.8 ng/mL. For the same compound, the level at 8 h (in vivo; [14]) was 108 ng/mL, the level at 24 h (in vivo; [15]) was 71.5 ng/mL and the level at 24 h (in vivo; [13]) was 27.3 ng/mL. The level at 24 h (in vivo; [14]) was 68 ng/mL, the MIC (A. baumanii ATCC 17978; ATCC 17978) was 64 µg/mL (≈ 54.1 µM) and the MIC (A. baumanii ATCC 17978; [11]) was over 128 µg/mL. It also gave an MIC (Bacillus subtilis 168) of over 64 µg/mL, an MIC [8] of over 64 µg/mL and an MIC (E. coli ΔtolC ΔbamB; Ca+ MHB Medium) of 8 µg/mL (≈ 6.76 µM). It also gave an MIC (E. coli ΔtolC ΔbamB; MOPS Minimal Medium) of 2 µg/mL (≈ 1.69 µM), an MIC (E. coli ΔtolC ΔbamB; RPMI Medium) of 2 µg/mL (≈ 1.69 µM) and an MIC [9] of 256 µg/mL. It also gave an MIC (K. pneumoniae C1459; C1459) of 8 µg/mL (≈ 6.76 µM), an MIC (K. pneumoniae C1459; [12]) of 32 µg/mL (≈ 27 µM) and an MIC [10] of 32 µg/mL.
